Reference: PubChem BioAssay (NCI)
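Results reflect a 48-hour exposure of cells in 96-well plates to compound at five concentrations. Abbreviation: GI50, concentration required for 50% inhibition of growth. At the TGI there is no net growth.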

What was measured:
Test in all cases: NCI-60 cell line screen, 48 h
[1] = system: MDA-MB-468 breast
[2] = system: SNB-19 CNS
[3] = system: MDA-MB-231 breast
[4] = system: MDA-MB-435
[5] = system: NCI-H460 lung
[6] = system: TK-10 renal
[7] = system: HCT-15 colon
[8] = system: HT29 colon
[9] = system: K-562 leukemia
[10] = system: HL-60(TB) leukemia
[11] = system: UACC-62 melanoma
[12] = system: NCI-H226 lung
[13] = system: SR leukemia
[14] = system: MALME-3M melanoma
[15] = system: A498 renal
[16] = system: EKVX NSCLC
[17] = system: BT-549 breast
[18] = system: SK-OV-3 ovarian
[19] = system: SW-620 colon
[20] = system: HOP-62 NSCLC
[21] = system: T-47D breast
[22] = system: ACHN renal
[23] = system: NCI-H522 lung
[24] = system: SF-268 CNS
[25] = system: SNB-75 CNS
[26] = system: KM12 colon
[27] = system: OVCAR-4 ovarian
[28] = system: SK-MEL-2 melanoma
[29] = system: SK-MEL-5 melanoma
[30] = system: OVCAR-3 ovarian
[31] = system: OVCAR-5 ovarian
[32] = system: PC-3 prostate
[33] = system: NCI/ADR-RES ovarian
[34] = system: SF-539 CNS
[35] = system: DU-145 prostate
[36] = system: A549 NSCLC
[37] = system: SK-MEL-28 melanoma
[38] = system: MOLT-4 leukemia
[39] = system: UO-31 renal
[40] = system: RXF 393 renal
[41] = system: OVCAR-8 ovarian
[42] = system: NCI-H23 lung
[43] = system: LOX IMVI melanoma
[44] = system: U251 CNS
[45] = system: CCRF-CEM leukemia
[46] = system: HOP-92 NSCLC
[47] = system: HCC-2998 colon
[48] = system: HCT-116 colon
[49] = system: SN12C renal
[50] = system: MCF7 breast
[51] = system: CAKI-1 renal
[52] = system: M14 melanoma
[53] = system: IGROV1 ovarian
[54] = system: SF-295 CNS
[55] = system: 786-0 renal
[56] = system: RPMI-8226 leukemia
[57] = system: HS 578T breast
[58] = system: COLO 205 colon
[59] = system: UACC-257 melanoma

## CCN1C(=O)N(CC)C2NNC(Sc3c(C(=O)O)c4ccccc4n(CC(C)C)c3=O)=NC21 (stereo not drawn)
[1]
  GI50: 0.442 µM
  TGI: 3.91 µM
[2]
  GI50: 3.78 µM
  TGI: 65 µM
[3]
  GI50: 2.51 µM
  TGI: 21.9 µM
[4]
  GI50: 0.976 µM
  TGI: 4.19 µM
[5]
  GI50: 3.08 µM
  TGI: 12.2 µM
[6]
  GI50: 18.4 µM
  TGI: > 100 µM
[7]
  GI50: 1.89 µM
  TGI: 18.8 µM
[8]
  GI50: 2.83 µM
  TGI: 12.5 µM
[9]
  GI50: 2.77 µM
  TGI: > 100 µM
[10]
  GI50: 2.37 µM
  TGI: 12.9 µM
[11]
  GI50: 2.68 µM
  TGI: 33.5 µM
[12]
  GI50: 3.92 µM
  TGI: 21.1 µM
[13]
  GI50: 13.2 µM
  TGI: > 100 µM
[14]
  GI50: 5.23 µM
  TGI: 47.7 µM
[15]
  GI50: > 100 µM
  TGI: > 100 µM
[16]
  GI50: 3.11 µM
  TGI: > 100 µM
[17]
  GI50: 35.7 µM
  TGI: > 100 µM
[18]
  GI50: 6.05 µM
  TGI: > 100 µM
[19]
  GI50: 4.05 µM
  TGI: > 100 µM
[20]
  GI50: 5.42 µM
  TGI: > 100 µM
[21]
  GI50: > 100 µM
  TGI: > 100 µM
[22]
  GI50: 4.73 µM
  TGI: 46.2 µM
[23]
  GI50: 1.88 µM
  TGI: 5.97 µM
[24]
  GI50: 6.46 µM
  TGI: > 100 µM
[25]
  GI50: 1.81 µM
  TGI: 9.27 µM
[26]
  GI50: 2.93 µM
  TGI: > 100 µM
[27]
  GI50: 15 µM
  TGI: > 100 µM
[28]
  GI50: 4.21 µM
  TGI: > 100 µM
[29]
  GI50: 3.83 µM
  TGI: 16.4 µM
[30]
  GI50: 3.19 µM
  TGI: 22.3 µM
[31]
  GI50: 4.19 µM
  TGI: 67.1 µM
[32]
  GI50: 4.14 µM
  TGI: > 100 µM
[33]
  GI50: 1.99 µM
  TGI: 4.89 µM
[34]
  GI50: 2.08 µM
  TGI: 5.47 µM
[35]
  GI50: 4.49 µM
  TGI: > 100 µM
[36]
  GI50: 4.6 µM
  TGI: > 100 µM
[37]
  GI50: 6.5 µM
  TGI: > 100 µM
[38]
  GI50: 3.66 µM
  TGI: > 100 µM
[39]
  GI50: 4.11 µM
  TGI: > 100 µM
[40]
  GI50: 3.17 µM
  TGI: 17.1 µM
[41]
  GI50: 3.55 µM
  TGI: 30.1 µM
[42]
  GI50: 3.67 µM
  TGI: 21.4 µM
[43]
  GI50: 4.13 µM
  TGI: 20.6 µM
[44]
  GI50: 3.91 µM
  TGI: > 100 µM
[45]
  GI50: 3.54 µM
  TGI: > 100 µM
[46]
  GI50: 14.4 µM
  TGI: 64.1 µM
[47]
  GI50: 3.28 µM
  TGI: 16.9 µM
[48]
  GI50: 3.18 µM
  TGI: > 100 µM
[49]
  GI50: 3.62 µM
  TGI: 34.4 µM
[50]
  GI50: 0.949 µM
  TGI: 21.5 µM
[51]
  GI50: 3.1 µM
  TGI: 23.2 µM
[52]
  GI50: 4 µM
  TGI: > 100 µM
[53]
  GI50: 2.54 µM
  TGI: 19.3 µM
[54]
  GI50: 3.01 µM
  TGI: 16.3 µM
[55]
  GI50: 7.45 µM
  TGI: > 100 µM
[56]
  GI50: 2.75 µM
  TGI: > 100 µM
[57]
  GI50: 2.94 µM
  TGI: 58.8 µM
[58]
  GI50: 2.53 µM
  TGI: 6.95 µM
[59]
  GI50: 14.7 µM
  TGI: > 100 µM
